Measured values: US7662994B2, “Method for the preparation of crystalline dexloxiglumide and products obtained” (Rottapharm S.p.A., priority 2003, dated 2010)

Assays:
[1] = molecular target: T1, type-1 cholecystokinin (CCK1) receptor (Homo sapiens, UniProt P32238); settings: cited from earlier work
T1 sequence (P32238 1-428): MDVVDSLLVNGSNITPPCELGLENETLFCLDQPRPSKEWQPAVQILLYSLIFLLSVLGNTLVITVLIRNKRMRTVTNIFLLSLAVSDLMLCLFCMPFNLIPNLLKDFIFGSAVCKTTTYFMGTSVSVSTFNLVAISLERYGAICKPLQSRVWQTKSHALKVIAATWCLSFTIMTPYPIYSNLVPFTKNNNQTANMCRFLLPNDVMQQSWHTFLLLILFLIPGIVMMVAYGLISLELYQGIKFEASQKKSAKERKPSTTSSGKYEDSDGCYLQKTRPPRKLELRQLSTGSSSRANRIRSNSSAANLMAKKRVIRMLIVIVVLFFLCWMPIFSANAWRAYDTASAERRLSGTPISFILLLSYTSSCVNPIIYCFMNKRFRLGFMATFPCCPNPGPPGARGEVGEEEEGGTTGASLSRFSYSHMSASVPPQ

[2] = Compressibility of the powder (Carr index, USP 24/NF19); assay type: physicochemical; settings: 100 g powder, 250 ml graduated cylinder, 2000 strokes; percentage values 5-15 excellent, >33 very poor
Experimental: a) measurement of the compressibility of the powder which is expressed by the following formula (Carr index; (according to USP 24/NF19, p. 1914): [formula] where Vo and Vf are respectively the volumes occupied by a predetermined weighed quantity of powder (generally 100 g) placed in a 250 ml graduated cylinder and measured before and after a certain number of mechanical strokes (generally 2000 strokes); the smaller this index is the better will be the behaviour of the powder upon compression; for example, percentage values between 5-15 are considered excellent, whereas values greater than 33 are considered very poor (see J. I. Wells—Pharmaceutical Preformulation; Ellis H. Lim; J. Wiley and Sons Ed. p.

[3] = Particle size distribution by laser light scattering (Malvern Master Sizer 2000, wet method); assay type: physicochemical; settings: for span index: (D90-D10)/D50 type width of distribution; for D50 (mean size measurement) / percentage of particles <10 μm (fine particles): wet method, H2O with 0.5% Tween 20, sonication 60 sec
Experimental: The PSD is determined by the “laser light scattering” technique, that is, the scattering (diffraction) which a high-energy, monochromatic light beam (a laser beam) undergoes when it encounters a particle of a particular size on its optical path. The powder to be examined may be prepared by various techniques, both dry and wet; in the latter case, the selection of the dispersant should take account of the chemical/physical properties of the raw material to be analyzed. Once the sample has been analyzed, the results can be given as histograms in which each individual column represents a band of a certain width (in microns), whereas the height represents the percentage of sample present in that band. The principal statistical distribution values calculated by the software of this apparatus are, amongst other things, the D50, that is, the size in microns for which 50% of the sample is smaller and 50% is larger. Another important measurement is the “span”, which is the measurement of the width of the distribution. This width is calculated by the following ratio: [formula] where D90 and D10 have meanings analogous to that of D50. The smaller this “span” index is, the more reliable the particle distribution of the sample examined will be. The apparatus used for the determination of the PSD was a Malvern Master Sizer 2000 and the method used was the wet method with the use of H2O as the dispersant with a concentration of 0.5% of Tween 20 as surfactant. The measurements were taken at a concentration of dexloxiglumide of about 0.06-0.08% after ultrasound sonication for 60 sec which enabled the accumulations to be broken up without breaking the crystals. Note: The particle sizes given both in the text and in the claims are not absolute quantities but are relative to the measurement method used (in this case the Malvern Master Sizer 2000 instrument with the method described in Example 1).

[4] = Morphological analysis of the crystals by microscopy (300x); assay type: physicochemical; settings: photographs, 300x magnification
Experimental: Morphological analysis performed by microscopic analysis of the crystals obtained by crystallization from ethanol/H2O and isopropyl ether, respectively, also confirms what had already been seen with by particle-size analysis by laser-beam diffraction.
It can be seen from a comparison of the two images of FIG. 2 that the product crystallized from isopropyl ether has crystals with well-defined, lamellar shapes with an average diameter of about 70-100 μm, whereas the other lot has crystals of irregular shape with very many smaller aggregated crystals.

Carr index [2] | shape of particle distribution [3] | span index [3] | D50 (mean size measurement) [3] | percentage of particles <10 μm (fine particles) [3] | average diameter of crystals [4] | SMILES | antagonistic activity towards CCK1 receptor [1]
 |  |  |  |  |  | CCCCCN(CCCOC)C(=O)[C@@H](CCC(=O)O)NC(=O)c1ccc(Cl)c(Cl)c1 [Dexloxiglumide, (R)-4-[(3,4-dichlorobenzoyl)amino]-5-[(3-methoxypropyl)-pentylamino]-5-oxo-pentanoic acid] | potent antagonistic activity
> 33 | bimodal | 4.668 | 23.6 μm | 29.5% |  | CCCCCN(CCCOC)C(=O)[C@@H](CCC(=O)O)NC(=O)c1ccc(Cl)c(Cl)c1 [dexloxiglumide obtained by crystallization from H2O/ethanol ] [(R)-4-[(3,4-dichlorobenzoyl)amino]-5-[(3-methoxypropyl)-pentylamino]-5-oxo-pentanoic acid, reference compound] | 
about 12 | practically unimodal | 1.608 | 97.3 μm | 4.23% | 70-100 μm | CCCCCN(CCCOC)C(=O)[C@@H](CCC(=O)O)NC(=O)c1ccc(Cl)c(Cl)c1 [lot PP9282/43851, (R)-4-[(3,4-dichlorobenzoyl)amino]-5-[(3-methoxypropyl)-pentylamino]-5-oxo-pentanoic acid] | 
